Entries after “also recorded” stand apart in the source; their conditions may differ.
Tests used:
LN229 cells [1] = assay: ATP measurement (luciferin-luciferase); assay type: cell-based, human; conditions: Gamitrinib 5-10 μM, concentration-dependent
Method: Intracellular ATP concentrations were measured by the luciferin-luciferase method using an ATP measuring kit (Biochain). The ATP concentration in each extract was determined in a microplate luminometer (Beckman Coulter) against standard ATP solutions used as reference.

PC3 cells [2] = assay: Matrigel-coated transwell cell invasion; assay type: cell-based, human; conditions: Gamitrinib 5 μM, 17-AAG 5 μM, CCCP 12.5 μM, 2-DG 25 mM, 16 h
Method: Various tumor cell types were treated as indicated in each experiment, suspended in 0.1% BSA/DMEM and seeded (1.6−3.2×10^3 cells/mm2, depending on the cell type) in the upper compartment of […] pore diameter BD transwells (BD). NIH3T3 conditioned medium was placed in the lower compartment as a chemoattractant. After 6-18 h incubations at 37° C., the transwell membranes were recovered and cells on the upper side (non-migratory) were wiped off the surface. Cells on the lower side of the membrane were fixed in methanol, rinsed in water and mounted on glass slides with Vectashield medium containing DAPI (Vector Laboratories). Migrated cells on each membrane were counted by fluorescence microscopy in 5 different fields. For cell invasion assays, transwell membranes were coated with Matrigel and processed as described above.

LN229 spheroids [3] = assay: Tumor cell invasion in 3D organotypic spheroids embedded in collagen; assay type: cell-based, human; conditions: LN229 spheroids in collagen matrix; Gamitrinib 1.25-2.5 μM; 72 h
Method: (§1) For cell migration experiments using a wound closure assay, confluent monolayers of MRC-5 cells were incubated with vehicle or Gamitrinib (5-10 μM), and wounded using a 10 μl pipette tip. Three micrographs/well were obtained at time=0, 16 and 24 h after wounding, and the percentage of wound closure was normalized to the maximum initial area for each well. For analysis of tumor cell invasion in 3D organotypic spheroids, tumor cells (5×10^4) were seeded onto 96-well plates coated with 1.5% agar (Difco Noble Agar) in PBS, pH 7.4. Spheroids were allowed to form over a 72 h period and then embedded in […] of bovine collagen type I (Organogenesis) in 24-well plates. Spheroids were overlaid with 1 ml of growth medium, treated with various concentrations of Gamitrinib for 72 h, and analyzed for changes in maximum invasion distance and invasion area. Quantification of live vs. dead cells under the various conditions tested was performed by staining the spheroids with calcein-AM (live, bright cluster) and Topro-3 (dead, dark spots) (Invitrogen) for 2 h. Samples were imaged using a Prairie Ultima II 2-photon microscope (Prairie Technologies, Inc, Middleton, Wis.), and stacks of 100 slices were generated in 2 channels. 3-D reconstruction of the labeled spheroids and analysis of cell staining was carried out using ImagePro Plus 3D software (Media Cybernetics, Silver Spring Md.).

Akt or ERK = assay: Western blotting, Akt or ERK phosphorylation; assay type: cell-based, human; conditions: Gamitrinib 5 μM
Method: (§2) Protein lysates were prepared in RIPA buffer containing 150 mM NaCl, 1.0% Triton X-100, 0.5% sodium deoxycholate, 0.1% SDS, 50 mM Tris, pH 8.0, in the presence of EDTA-free protease inhibitor cocktail (Roche) and phosphatase inhibitor cocktail 2 and 3 (Sigma Aldrich). Equal amounts of protein lysates were separated by SDS gel electrophoresis, transferred to PVDF membranes and incubated with primary antibodies of various specificities. Protein bands were detected by chemiluminescence, as described (21).

Raptor = assay: Western blotting, Raptor phosphorylation; assay type: cell-based, human; conditions: PC3; Gamitrinib 5 μM, metformin 5 mM 6 h, 17-AAG 5 μM
Method: as §2

[4] = test system: p21-activated kinases, Pak-1,2; assay: Western blotting, Pak phosphorylation; assay type: cell-based, human; conditions: Gamitrinib 5 μM
Method: as §2

LN229 cells [5] = assay: Galactose challenge cell viability; assay type: cell-based, human; conditions: Gamitrinib 5 μM
Method: Human glioblastoma LN229, prostate adenocarcinoma PC3 and PC3-ML subline, lung adenocarcinoma H1299, H1437, H460 and A549, breast adenocarcinoma MDA-MB-231, melanoma 1205Lu and WM793, or normal NIH3T3 and MRC-5 fibroblasts were obtained from the American Tissue Culture Collection (ATCC), and maintained in culture according to the supplier's specifications. For metabolic stress experiments, cells were incubated in MEM-based media containing glucose, essential and non-essential amino acids and vitamins in identical concentration as DMEM, plus 4 mM L-glutamine, 1 mM sodium pyruvate, 10 mM HEPES, and 10% 10 K dialyzed FBS (Gibco). Three conditions were tested: 25 mM glucose (complete medium), 5 mM glucose or 50% amino acid deprivation compared to DMEM. […]
Tumor cells were plated onto 96-well plates at 3.7×10^3/well and treated with vehicle or Gamitrinib (5 μM). After 24 h, cell viability was assessed with a 3 (4,5-dimethyl-thyazoyl-2-yl)2,5 diphenyltetrazolium bromide (MTT) colorimetric assay (24), or, alternatively, by Trypan blue exclusion and light microscopy. […] In some experiments, tumor cell proliferation was assessed by direct cell counting and light microscopy.

LN229 spheroids [6] = assay: Spheroid live/dead staining (calcein-AM/Topro-3), 2-photon microscopy; assay type: cell-based, human
Method: as §1

PC3 cells [7] = assay: Cell death by Trypan blue exclusion; assay type: cell-based; conditions: vs vehicle, Gamitrinib 5 μM, CCCP 12.5 μM, 2-DG 25 mM
Method: (§3) Tumor cells were plated onto 96-well plates at 3.7×10^3/well and treated with vehicle or Gamitrinib (5 μM). After 24 h, cell viability was assessed with a 3 (4,5-dimethyl-thyazoyl-2-yl)2,5 diphenyltetrazolium bromide (MTT) colorimetric assay (24), or, alternatively, by Trypan blue exclusion and light microscopy. Data were background-subtracted relative to vehicle-treated cultures. In some experiments, tumor cell proliferation was assessed by direct cell counting and light microscopy.

PC3 cells [8] = assay: Lamella dynamics in live cells (SACED stroboscopic analysis); assay type: cell-based, human; conditions: Gamitrinib 5 μM
Method: Tumor cells growing at low confluency (3-5×10^4/well) on high optical quality 96 well μ-plates (Ibidi) were imaged with a 40× objective on a Nikon TE300 inverted time-lapse microscope equipped with a video system containing a Evolution QEi camera and a time-lapse video cassette recorder. All experiments were carried out in atmosphere-equilibrated environment at 37° C. and 5% CO2. Phase contrast images were captured at 0.5 sec intervals for 5 min (600 images=300 sec) and merged into sequence files using ImagePro Plus 7. Real time dynamics of a particular cellular region were quantified by Stroboscopic Analysis of Cell Dynamics (SACED) (55), with generation of digital steps from the first 120 sec (240 frames) of the sequence files imported into Image J software. A particular region of 16.2 μm×0.162 μm (“SACED line”) was selected in cells under analysis, duplicated and montaged in sequence to display the region over time in a stroboscopic image. […] Structures such as protruding lamellipodia and ruffles were manually labeled and the frequency of ruffles per min was calculated. Mean values were calculated from at least 15 cells from 4 separate wells. All experiments were repeated at least twice with different tumor cell types.

PC3 cells [9] = assay: Cell proliferation by direct cell counting; assay type: cell-based, human; conditions: vs vehicle, Gamitrinib 5 μM, CCCP 12.5 μM, 2-DG 25 mM
Method: as §3

Gamitrinib
ATP production in tumor cells (LN229 cells [1]): inhibited ATP production
tumor cell invasion (PC3 cells [2]): suppressed
invasive length and invasive areas (LN229 spheroids [3]): nearly complete suppression
tumor cell invasion in organotypic spheroids (LN229 spheroids [3]): blocked tumor cell invasion
Akt or ERK phosphorylation (Akt or ERK): not affected
Raptor phosphorylation on Ser792 (Raptor): induced strong phosphorylation
Pak-1,2 phosphorylation on Ser199, Ser144 and Ser20 [4]: inhibited the phosphorylation
tumor cell viability in 100% galactose (LN229 cells [5]; 0% Glc-100% Gal): nearly complete tumor cell death
tumor cell viability in glucose or 50% galactose (LN229 cells [5]; 100% glucose or 50% Glc-50% Gal): did not significantly reduce tumor cell viability
overall cell viability in a 3-D microenvironment (LN229 spheroids [6]): not affected
cell death by Trypan blue exclusion (PC3 cells [7]): did not affect
ruffling frequency and retraction speed (PC3 cells [8]; PC3): profound inhibition
cytoskeletal lamella dynamics (PC3 cells [8]; single cell time-lapse videomicroscopy): nearly complete loss
tumor cell proliferation (PC3 cells [9]): did not reduce tumor cell proliferation; also recorded: did not affect cell proliferation
